Source: patent US5364861A, “Optical isomers of 7-[3-(1,1-dialkylmethyl-1-amino-1-pyrrolidinyl]-quinolones and naphthyridones as antibacterial agents” (Warner-Lambert Company, priority 1993, dated 1994)
In brackets after ≈: the same amount, converted by molar mass. Like-named read-outs stand apart in the source and are kept apart here.

Legend:
Pseud. aeruginosa UI-18 [1] = assay: median protective dose in mice given lethal systemic infection, Pseud. aeruginosa; assay type: in vivo; conditions: Pseudomonas aeruginosa, UI18, Pseud. aeruginosa, single dose at time of challenge, route not given, read-out: median protective dose (PD50)
Protocol: (§1) The in vivo activity is obtained when the compounds are tested according to the procedure of Miller, et al (Proc. Soc. Exp. Biol. Med. 1944;57:261). The median protective dose (PD50) was determined in mice given lethal systemic infections. Single doses of compound were given at time of challenge.
(§2) By use of the above methods, the following minimum inhibiting concentration values (MICs in μg/ml), PD50 's in mg/kg, no effect phototoxicity dose in mg/kg and the cytotoxicity IC50 in μg/mL were obtained for representative enantiomers of the invention and compounds of the prior art as shown in the table.
(§3) The in vivo data as PD50 's are reported below the line of MICs for the same compound.

in vivo = assay: in vivo; set-up: species or system mice; conditions: mouse, po
Protocol: The phototoxicity data is obtained using depilated mice. Compound was administered orally each day for four successive days, followed each day by 3 hours of […] radiation. The mice were examined for any positive signs (redness, erythema) relative to control animals. The no effect dose and the 50% effect dose were determined. By use of the above methods, the following minimum inhibiting concentration values (MICs in μg/ml), PD50 's in mg/kg, no effect phototoxicity dose in mg/kg and the cytotoxicity IC50 in μg/mL were obtained for representative enantiomers of the invention and compounds of the prior art as shown in the table.

Esch. coli Vogel [2] = assay: median protective dose in mice given lethal systemic infection, Esch. coli; assay type: in vivo; conditions: Escherichia coli, single dose at time of challenge, route not given, read-out: median protective dose (PD50)
Protocol: as §1, §2, §3

[3] = cytotoxicity, colony reduction of hamster V-79 cells; assay type: cell-based; conditions: 3 hours treatment, colonies counted after 5 days, read-out: cytotoxicity IC50 (Cytotox)
Protocol: The cytotoxicity data is obtained using hamster V-79 cells. The cells were suspended in tissue culture medium and grown overnight. Cells were treated with drug for 3 hours, washed free of drug and then replated, and the colonies counted after 5 days. The concentration of drug that reduced colonies by 50% relative to control was recorded.
as §2

Strep. pneumoniae SV-1 [4] = assay: in vitro antibacterial activity, microtitration dilution (MIC), Strep. pneumoniae SV-1; assay type: cell-based; conditions: Streptococcus pneumoniae, SV1, read-out: minimum inhibiting concentration (MIC)
Excerpt: (§4) The in vitro antibacterial activity is obtained when tested by the microtitration dilution method as described in Heifetz, et al., Antimicr. Agents & Chemother. 1974;6:124, which is incorporated herein by reference.
as §2

Ent. cloacae MA2646 = assay: in vitro antibacterial activity, microtitration dilution (MIC), Ent. cloacae MA2646; assay type: cell-based; conditions: Enterobacter cloacae, read-out: minimum inhibiting concentration (MIC)
Excerpt: as §4, §2

Klebs. pneumoniae MGH-2 = assay: in vitro antibacterial activity, microtitration dilution (MIC), Klebs. pneumoniae MGH-2; assay type: cell-based; conditions: Klebsiella pneumoniae, MGH2, read-out: minimum inhibiting concentration (MIC)
Excerpt: as §4, §2

Strep. pneumoniae SV-1 [5] = assay: median protective dose in mice given lethal systemic infection, Strep. pneumoniae; assay type: in vivo; conditions: Streptococcus pneumoniae, SV1, Strep. pneumoniae, single dose at time of challenge, route not given, read-out: median protective dose (PD50)
Protocol: as §1, §2, §3

Prot. rettgeri M 1771 = assay: in vitro antibacterial activity, microtitration dilution (MIC), Prot. rettgeri M 1771; assay type: cell-based; conditions: Providencia rettgeri, M1771, read-out: minimum inhibiting concentration (MIC)
Excerpt: as §4, §2

Strep. faecalis MGH-2 = assay: in vitro antibacterial activity, microtitration dilution (MIC), Strep. faecalis MGH-2; assay type: cell-based; conditions: Enterococcus faecalis, MGH2, read-out: minimum inhibiting concentration (MIC)
Excerpt: as §4, §2

Esch. coli Vogel [6] = assay: in vitro antibacterial activity, microtitration dilution (MIC), Esch. coli Vogel; assay type: cell-based; conditions: Escherichia coli, read-out: minimum inhibiting concentration (MIC)
Excerpt: as §4, §2

Strep. pyogenes C-203 [7] = assay: in vitro antibacterial activity, microtitration dilution (MIC), Strep. pyogenes C-203; assay type: cell-based; conditions: Streptococcus pyogenes, C203, read-out: minimum inhibiting concentration (MIC)
Excerpt: as §4, §2

Staph. aureus UC-76 = assay: in vitro antibacterial activity, microtitration dilution (MIC), Staph. aureus UC-76; assay type: cell-based; conditions: Staphylococcus aureus, UC76, read-out: minimum inhibiting concentration (MIC)
Excerpt: as §4, §2

Pseud. aeruginosa UI-18 [8] = assay: in vitro antibacterial activity, microtitration dilution (MIC), Pseud. aeruginosa UI-18; assay type: cell-based; conditions: Pseudomonas aeruginosa, UI18, read-out: minimum inhibiting concentration (MIC)
Excerpt: as §4, §2

Strep. pyogenes C-203 [9] = assay: median protective dose in mice given lethal systemic infection, Strep. pyogenes; assay type: in vivo; conditions: Streptococcus pyogenes, C203, Strep. pyogenes, single dose at time of challenge, route not given, read-out: median protective dose (PD50)
Protocol: as §1, §2, §3

Staph. aureus H 228 = assay: in vitro antibacterial activity, microtitration dilution (MIC), Staph. aureus H 228; assay type: cell-based; conditions: Staphylococcus aureus, H228, read-out: minimum inhibiting concentration (MIC)
Excerpt: as §4, §2

CC(C)(N)[C@@H]1CCN(c2nc3c(cc2F)c(=O)c(C(=O)O)cn3C2CC2)C1 [Example 4]
ED50 (Pseud. aeruginosa UI-18 [1]; first line below the MICs): 50 mg/kg
ED50 (Pseud. aeruginosa UI-18 [1]; second line below the MICs): 22 mg/kg
NOAEL (in vivo): 30 mg/kg
ED50 (Esch. coli Vogel [2]; first line below the MICs): 5 mg/kg
ED50 (Esch. coli Vogel [2]; second line below the MICs): 1 mg/kg
CC50 at 3 h [3]: 130 µg/mL (≈ 347 µM)
MIC (Strep. pneumoniae SV-1 [4]): 0.006 µg/mL (≈ 0.016 µM)
MIC (Ent. cloacae MA2646): 0.1 µg/mL (≈ 0.267 µM)
MIC (Klebs. pneumoniae MGH-2): 0.2 µg/mL (≈ 0.534 µM)
ED50 (Strep. pneumoniae SV-1 [5]; first line below the MICs): 5 mg/kg
ED50 (Strep. pneumoniae SV-1 [5]; second line below the MICs): 2 mg/kg
MIC (Prot. rettgeri M 1771): 0.4 µg/mL (≈ 1.07 µM)
MIC (Strep. faecalis MGH-2): 0.05 µg/mL (≈ 0.134 µM)
MIC (Esch. coli Vogel [6]): 0.05 µg/mL (≈ 0.134 µM)
MIC (Strep. pyogenes C-203 [7]): 0.013 µg/mL (≈ 0.0347 µM)
MIC (Staph. aureus UC-76): 0.003 µg/mL (≈ 0.00801 µM)
MIC (Pseud. aeruginosa UI-18 [8]): 1.6 µg/mL (≈ 4.27 µM)
ED50 (Strep. pyogenes C-203 [9]; first line below the MICs): 4 mg/kg
ED50 (Strep. pyogenes C-203 [9]; second line below the MICs): 1 mg/kg
MIC (Staph. aureus H 228): 0.05 µg/mL (≈ 0.134 µM)
